pKd: −log10 of the molar value.
Molecular target: FABP4 (Homo sapiens, UniProt P15090)
Assay: TdF (Temperature Dependence Fluorescence) assay, thermal shift, FABP4
Format: binding
Source text: TdF (Temperature Dependence Fluorescence) Assay for FABP3 and FABP4
The TdF assay was mainly conducted in the 96-well based CHROMO-4 real time fluorescence plate reader (BioRad). The Sypro Orange (Sigma-Aldrich), environmentally sensitive fluorescence dye, was used to monitor the protein folding-unfolding transition. Protein-ligand binding was gauged by the change (or shift) in the unfolding transition temperature (ΔTm) acquired at protein alone with respect to protein in the presence of ligand of interest.
The compound of interest was first prepared in DMSO stock (typical concentration: 10 mM). […] Final percentage of DMSO resided in the sample was 2%. The sample plate was heated from 30° C. to 90° C. with thermal ramping rate of 1° C./min. The fluorescence signals were acquired with excitation and emission wavelengths centered at 490 and 560 nm respectively. The instrument thermal stability was ±0.2° C.
Theoretical basis for TdF-based ligand binding affinity constant
In brief, the binding constant of the ligand at the Tm is expressed as below:
[formula] where To is the midpoint of unfolding for unliganded protein and Tm is the midpoint of unfolding in presence of ligand. [LTm] is free ligand at Tm. The ΔHu and ΔCpu are the enthalpy of unfolding and heat capacity change of unfolding for the protein respectively.
The nonlinear regression fitting in general readily reaches convergence by properly constraining the initial values for the fitting parameters (e.g. the initial “guess” for the ΔHu was constrained to 120 kcal/mol; initial Yn and mn were set to 1 and zero to best represent the melting curve along the low temperature region; negative slope of −0.5 was initially chosen for mu; initial Tm was also constrained to 50° C.).
[formula] (see Brandts et al and Mayhood et al, shown above) where ΔHL (T) is the van't Hoff enthalpy of ligand binding at temperature T and ΔCpL is the heat capacity upon ligand binding. For simplicity, the ΔCpL and ΔHL (T) were set to zero and −7 kcal/mol respectively. […] TdCD (Temperature-dependent Circular Dichroism) Assay for FABP3/4/5

Chain of FABP4 (P15090 whole entry, species assumed): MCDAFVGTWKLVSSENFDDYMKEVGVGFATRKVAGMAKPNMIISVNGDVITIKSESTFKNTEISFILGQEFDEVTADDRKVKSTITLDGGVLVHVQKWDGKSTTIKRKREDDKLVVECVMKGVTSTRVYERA

SMILES	FABP4 TdF Kd	pKd
Cc1c(Cl)cccc1OC(C)c1cc(=O)n2nc(-c3ccccc3)nc2[nH]1 (single isomer, unassigned) [37-6]	B (0.5 ≦ B < 0.001 μM)	–
Cc1c(Cl)cccc1OC(C)c1cc(=O)n2nc(-c3ccccc3)nc2[nH]1 (single isomer, unassigned) [37-7]	B (0.5 ≦ B < 0.001 μM)	–
CCc1ccc(OCc2cc(=O)n3nc(-c4ccccc4)nc3[nH]2)cc1 [1-3]	B (0.5 ≦ B < 0.001 μM)	–
O=c1cc(COc2cccc3c2CCC3)[nH]c2nc(-c3ccccc3)nn12 [1-6]	B (0.5 ≦ B < 0.001 μM)	–
O=c1cc(COc2ccc(C(F)(F)F)cc2)[nH]c2nc(-c3ccccc3)nn12 [1-7]	–	< 6.30
O=c1cc(COc2ccc(Br)c(Cl)c2)[nH]c2nc(-c3ccccc3)nn12 [1-8]	–	< 6.30
O=c1cc(COC2CCc3ccccc32)[nH]c2nc(-c3ccccc3)nn12 (centres unmarked) [1-9]	B (0.5 ≦ B < 0.001 μM)	–
O=c1cc(COc2cccc3c2CCCC3)[nH]c2nc(-c3ccccc3)nn12 [1-10]	B (0.5 ≦ B < 0.001 μM)	–
O=c1cc(Cn2ccc3c(Cl)cccc32)[nH]c2nc(-c3ccccc3)nn12 [1-11]	B (0.5 ≦ B < 0.001 μM)	–
O=c1cc(Cn2ncc3ccccc32)[nH]c2nc(-c3ccccc3)nn12 [1-12]	–	< 6.30
O=c1cc(CN2CCCc3ccccc32)[nH]c2nc(-c3ccccc3)nn12 [1-13]	B (0.5 ≦ B < 0.001 μM)	–
O=c1cc(CN2Cc3ccccc3C2)[nH]c2nc(-c3ccccc3)nn12 [1-14]	–	< 6.30
CN(Cc1cc(=O)n2nc(-c3ccccc3)nc2[nH]1)C1CCCCC1 [1-15]	–	< 6.30
CN(Cc1cc(=O)n2nc(-c3ccccc3)nc2[nH]1)c1cccc(Br)c1 [1-16]	B (0.5 ≦ B < 0.001 μM)	–
O=c1cc(COc2ccccc2OC(F)(F)F)[nH]c2nc(-c3ccccc3)nn12 [1-18]	B (0.5 ≦ B < 0.001 μM)	–
O=c1cc(COc2cccnc2)[nH]c2nc(-c3ccccc3)nn12 [1-19]	–	< 6.30
O=c1cc(COC2CCC2)[nH]c2nc(-c3ccccc3)nn12 [1-20]	–	< 6.30
O=c1cc(COC2CCCCC2)[nH]c2nc(-c3ccccc3)nn12 [1-21]	B (0.5 ≦ B < 0.001 μM)	–
Cn1nc(C(F)(F)F)cc1OCc1cc(=O)n2nc(-c3ccccc3)nc2[nH]1 [1-22]	–	< 6.30
N#Cc1cc(F)cc(OCc2cc(=O)n3nc(-c4ccccc4)nc3[nH]2)c1 [1-23]	–	< 6.30
N#Cc1c(Cl)cccc1OCc1cc(=O)n2nc(-c3ccccc3)nc2[nH]1 [1-24]	B (0.5 ≦ B < 0.001 μM)	–
CC(C)c1cccc(OCc2cc(=O)n3nc(-c4ccccc4)nc3[nH]2)c1 [1-25]	–	< 6.30
Cc1cccc(OCc2cc(=O)n3nc(-c4ccccc4)nc3[nH]2)c1C [1-26]	–	< 6.30
Cc1ccc2ccccc2c1OCc1cc(=O)n2nc(-c3ccccc3)nc2[nH]1 [1-27]	B (0.5 ≦ B < 0.001 μM)	–
CN(C)c1cccc(OCc2cc(=O)n3nc(-c4ccccc4)nc3[nH]2)c1 [1-28]	–	< 6.30
COc1ccc2c(c1)CN(Cc1cc(=O)n3nc(-c4ccccc4)nc3[nH]1)C2=O [1-29]	–	< 6.30

SMILES	FABP4 TdF Kd	pKd
O=c1cc(COc2ccc(I)cc2)[nH]c2nc(-c3ccccc3)nn12 [1-30]	–	< 6.30
O=c1cc(COc2c(Cl)ccc(Cl)c2Cl)[nH]c2nc(-c3ccccc3)nn12 [1-31]	B (0.5 ≦ B < 0.001 μM)	–
COc1cc(OC)cc(OCc2cc(=O)n3nc(-c4ccccc4)nc3[nH]2)c1 [1-32]	B (0.5 ≦ B < 0.001 μM)	–
CCc1cccc(C)c1OCc1cc(=O)n2nc(-c3ccccc3)nc2[nH]1 [1-33]	B (0.5 ≦ B < 0.001 μM)	–
Cc1nc(-c2ccc(OCc3cc(=O)n4nc(-c5ccccc5)nc4[nH]3)c(F)c2)cs1 [1-34]	–	< 6.30
Cc1ccc(C(C)C)cc1N(C)Cc1cc(=O)n2nc(-c3ccccc3)nc2[nH]1 [1-35]	B (0.5 ≦ B < 0.001 μM)	–
O=c1cc(CN2CCOc3ccccc32)[nH]c2nc(-c3ccccc3)nn12 [1-36]	–	< 6.30
Cc1cc(OCc2cc(=O)n3nc(-c4ccccc4)nc3[nH]2)n(C)n1 [1-37]	–	< 6.30
Cc1ccc(Br)c2ccn(Cc3cc(=O)n4nc(-c5ccccc5)nc4[nH]3)c12 [1-38]	–	< 6.30
Cc1c(F)cccc1OCc1cc(=O)n2nc(-c3ccccc3)nc2[nH]1 [1-39]	B (0.5 ≦ B < 0.001 μM)	–
CC(C)(C)OCc1cc(=O)n2nc(-c3ccccc3)nc2[nH]1 [1-40]	–	< 6.30
COc1ccc(OCc2cc(=O)n3nc(-c4ccccc4)nc3[nH]2)cc1OC [1-41]	–	< 6.30
O=c1cc(COC2CCNCC2)[nH]c2nc(-c3ccccc3)nn12 [1-42]	–	< 6.30
O=c1cc(CN2CCc3ccccc32)[nH]c2nc(-c3ccccc3)nn12 [1-43]	–	< 6.30
Cc1csc(-c2ccc(OCc3cc(=O)n4nc(-c5ccccc5)nc4[nH]3)cc2)n1 [1-44]	–	< 6.30
CN1CCC(OCc2cc(=O)n3nc(-c4ccccc4)nc3[nH]2)CC1 [1-45]	–	< 6.30
O=c1cc(COc2ccccc2)[nH]c2nc(-c3ccccc3)nn12 [1-46]	–	< 6.30
O=c1cc(COc2ccccn2)[nH]c2nc(-c3ccccc3)nn12 [1-47]	–	< 6.30
O=c1ccccn1Cc1cc(=O)n2nc(-c3ccccc3)nc2[nH]1 [1-48]	–	< 6.30
CC(=O)N1CCC(OCc2cc(=O)n3nc(-c4ccccc4)nc3[nH]2)CC1 [1-49]	–	< 6.30
CN(Cc1cc(=O)n2nc(-c3ccccc3)nc2[nH]1)c1cccnc1Br [1-51]	–	< 6.30
O=c1cc(CNC2CCc3c(Cl)cccc32)[nH]c2nc(-c3ccccc3)nn12 (centres unmarked) [1-52]	B (0.5 ≦ B < 0.001 μM)	–
CN(Cc1cc(=O)n2nc(-c3ccccc3)nc2[nH]1)C1Cc2ccccc2C1 [1-54]	–	< 6.30
COc1c(Cl)cccc1OCc1cc(=O)n2nc(-c3ccccc3)nc2[nH]1 [1-55]	B (0.5 ≦ B < 0.001 μM)	–
O=c1cc(CN2CCCC2Cc2ccc(F)cc2)[nH]c2nc(-c3ccccc3)nn12 (centres unmarked) [1-56]	–	< 6.30
O=c1cc(CN2CCCC2Cc2cccc(Cl)c2)[nH]c2nc(-c3ccccc3)nn12 (centres unmarked) [1-57]	B (0.5 ≦ B < 0.001 μM)	–

SMILES	FABP4 TdF Kd	pKd
COc1cccc(C)c1OCc1cc(=O)n2nc(-c3ccccc3)nc2[nH]1 [1-58]	B (0.5 ≦ B < 0.001 μM)	–
O=c1cc(COc2cccc(C(F)(F)F)c2)[nH]c2nc(-c3ccccc3)nn12 [1-59]	–	< 6.30
CCc1cccc(OCc2cc(=O)n3nc(-c4ccccc4)nc3[nH]2)c1 [1-60]	B (0.5 ≦ B < 0.001 μM)	–
O=c1cc(COc2ccc(Br)cc2)[nH]c2nc(-c3ccccc3)nn12 [1-61]	–	< 6.30
O=c1cc(COc2ccccc2C(F)(F)F)[nH]c2nc(-c3ccccc3)nn12 [1-62]	B (0.5 ≦ B < 0.001 μM)	–
Cc1ccc(OCc2cc(=O)n3nc(-c4ccccc4)nc3[nH]2)cc1C [1-63]	B (0.5 ≦ B < 0.001 μM)	–
O=c1cc(COc2cccc(OC(F)(F)F)c2)[nH]c2nc(-c3ccccc3)nn12 [1-64]	–	< 6.30
O=c1cc(COc2ccc(OC(F)(F)F)cc2)[nH]c2nc(-c3ccccc3)nn12 [1-65]	–	< 6.30
CC(C)c1ccccc1OCc1cc(=O)n2nc(-c3ccccc3)nc2[nH]1 [1-66]	B (0.5 ≦ B < 0.001 μM)	–
O=c1cc(COc2cccc(Cl)c2Cl)[nH]c2nc(-c3ccccc3)nn12 [1-67]	B (0.5 ≦ B < 0.001 μM)	–
CCc1ccc(OCc2cc(=O)n3nc(-c4ccccc4)nc3[nH]2)c(C(C)(C)C)c1 [1-68]	B (0.5 ≦ B < 0.001 μM)	–
CCc1ccc(OCc2cc(=O)n3nc(-c4ccccc4)nc3[nH]2)c(OC)c1 [1-69]	B (0.5 ≦ B < 0.001 μM)	–
Cc1cc(OCc2cc(=O)n3nc(-c4ccccc4)nc3[nH]2)ccc1C(C)C [1-70]	B (0.5 ≦ B < 0.001 μM)	–
CC(C)(C)c1ccc(OCc2cc(=O)n3nc(-c4ccccc4)nc3[nH]2)c(Cl)c1 [1-71]	–	< 6.30
COc1cc(CC(C)=O)ccc1OCc1cc(=O)n2nc(-c3ccccc3)nc2[nH]1 [1-72]	–	< 6.30
O=c1cc(COc2ccccc2Br)[nH]c2nc(-c3ccccc3)nn12 [1-73]	B (0.5 ≦ B < 0.001 μM)	–
Cc1cc(C(C)(C)C)ccc1OCc1cc(=O)n2nc(-c3ccccc3)nc2[nH]1 [1-74]	–	< 6.30
O=c1cc(COc2cccc3cnccc23)[nH]c2nc(-c3ccccc3)nn12 [1-75]	–	< 6.30
O=c1cc(COC2CCOCC2)[nH]c2nc(-c3ccccc3)nn12 [1-76]	–	< 6.30
O=c1cc(CN2CC[S+]([O-])CC2)[nH]c2nc(-c3ccccc3)nn12 [1-77]	–	< 6.30
O=c1cc(CN2CCC(Cc3ccc(Cl)cc3)CC2)[nH]c2nc(-c3ccccc3)nn12 [1-78]	–	< 6.30
O=c1cc(COC2CCSCC2)[nH]c2nc(-c3ccccc3)nn12 [1-79]	–	< 6.30
O=c1cc(COc2cccc3ncccc23)[nH]c2nc(-c3ccccc3)nn12 [1-80]	B (0.5 ≦ B < 0.001 μM)	–
O=c1cc(CN2CCOc3c(Br)cccc32)[nH]c2nc(-c3ccccc3)nn12 [1-81]	B (0.5 ≦ B < 0.001 μM)	–
O=c1cc(CN2CCc3ccc(Br)cc32)[nH]c2nc(-c3ccccc3)nn12 [1-82]	B (0.5 ≦ B < 0.001 μM)	–

From patent publication US8815875B2 (Merck Sharp & Dohme Corp., priority 2008, dated 2014)
